Laboratory results taken from patent US8334107B2, “Detection systems utilizing supported lipid bilayers” (priority 2005, dated 2012).

Key:
[1] = Lipid bilayers on MS-PPE as barriers to superquenching by AQS, flow cytometry; format: physicochemical; settings: 10 μM AQS
Experimental: Small unilamellar vesicles (SUVs) were prepared using a 2 mM solution of DPPC, 1 mM egg-PC, or 2 mM DMPG in chloroform. The lipid was dried by nitrogen gas followed by vacuum. The dried lipid was resuspended in phosphate buffer saline (PBS), pH 7.4, and incubated at 37° C. for 10 min, then sonicated to optical clarity in a sonication bath (Branson Cleaning Equipment Co., Shelton, Conn.).
Lipid bilayers were assembled on microspheres as previously described (Buranda et al. Langmuir 19:1654-1663 (2003); Bayerl & Bloom, Biophys J 58:357-362 (1990)). Briefly, the small unilamellar vesicles were incubated at 37° C. for 5 min, and PPE-coated microspheres were added to them, and mixed at room temperature using a vortex mixer for 30 min, followed by incubation at 37° C. for 5 min without mixing. The lipid-coated PPE-coated microspheres were washed by suspension in PBS followed by centrifugation, where the clear supernatant was decanted and discarded. The cycle of resuspension, centrifugation, and decanting, was repeated four additional times. Finally, the lipid-coated PPE-coated microspheres were resuspended in PBS.
(§1) Bead suspensions of 2.5×10^5 PPE-coated microspheres in 200 μL PBS were analyzed using a FACScan flow cytometer (Becton-Dickinson, Sunnyvale, Calif.) with excitation at 488 nm. Fluorescence signals were acquired on the FL-1 channel (525 nm) using log amplification and analyzed with the CellQuest software.
The feasibility of using the zwitterionic lipids DPPC and egg-PC to form supported lipid bilayers on MS-PPE was assessed (FIG. 15). […] Addition of AQS produced an almost 40% reduction of the polymer fluorescence, yet the fluorescence of the DPPC bilayer coated MS-PPE in the presence of the AQS quencher was still almost 10-fold higher than that of MS-PPE and quencher without the lipid.
The PPE polymer is positively charged. […] However when using 2 mM DMPG, the modulation of polymer fluorescence was relatively small (FIG. 15). […] Thus, upon addition of quencher to MS-PPE after treatment with DMPG ˜70% of fluorescence of the PPE was retained (FIGS. 16A and 16B).

[2] = tested on: DMPG lipid bilayer on MS-PPE; test: Disruption of DMPG lipid bilayer on MS-PPE detected by superquenching with AQS, flow cytometry; format: biochemical
Experimental: Lipid bilayers were disrupted by adding Triton X-100® detergent to the bead suspension to a final concentration of 0.25% (w/v).
as §1
Bead suspensions of 2.5×10^5 DMPG-coated MS-PPE in 200 μL of PBS were analyzed using a FACScan flow cytometer (Becton-Dickinson, Sunnyvale, Calif.) with excitation at 488 nm. Fluorescence signals were acquired on FL-1 channel (525 nm) using log amplification and analyzed with the CellQuest software. Kinetic analysis of disruption of supported lipid bilayer by melittin was performed by acquiring real-time data with continuous mixing of samples (10^6 MS-PPE in 800 μl of PBS) using a magnetic stirrer. The raw data were analyzed using IDL Query software developed by Bruce Edwards (Cancer Center, University of New Mexico, Albuquerque, N. Mex.).
Because an anionic lipid was used to form a lipid bilayer around MS-PPE, it was expected that MLT will disrupt the DMPG lipid bilayer by such a detergent-like action. This was tested by adding 10 μM AQS to DMPG-coated MS-PPE followed by treatment with one of the following: Triton X-100® detergent, synthetic MLT (sMLT), or natural MLT (nMLT) and immediately reading the fluorescence by flow cytometry. […] These histograms resemble the ones reported previously for MS-PPE, without a lipid coating, in absence and in presence of AQS.
The kinetics of disruption of supported lipid bilayer by MLT were monitored by measuring real-time changes in fluorescence intensity by flow cytometry (FIG. 19). Suspensions of 10^6 DMPG-coated MS-PPE in 800 μL of PBS were treated with AQS at a final concentration of 10 μM, then with either sMLT, Triton X-100® detergent, or no treatment. […] Treatment with sMLT in the absence of AQS led to an increase in normalized fluorescence (FIG. 19, trace A). This can be attributed to disruption of the lipid bilayer by sMLT, and is consistent with a reversal of the slight quenching of fluorescence caused by the formation of a DMPG lipid bilayer over MS-PPE. Addition of AQS alone to DMPG-coated MS-PPE (FIG. 19, trace C) led to a 20% reduction in fluorescence as reported earlier. Addition of Triton X-100® detergent to DMPG-coated MS-PPE after the addition of AQS (first dip in trace E, FIG. 19) caused immediate decrease in fluorescence to ˜10% of its original value (second dip in trace E, FIG. 19). In contrast, addition of sMLT, after the addition of AQS, (FIG. 19, trace D) led to a gradual reduction of fluorescence intensity to ˜20% of the original value. Although MLT forms dimers at high concentrations (Dempsey, C. E. Biochim. Biophys. Acta 1990, 1031, 143-161), it is monomeric at the concentrations used in this study. On the other hand, Triton X-100® detergent forms micelles at the concentration used in this study.

[3] = tested on: EPC bilayer on porous silica beads; test: Suspension study: release of fluorescein dye from lipid bilayer coated porous silica beads; format: biochemical
Experimental: Lipid coatings on beads were disrupted using 10% Triton X-100. Each sample in micro-centrifuge tubes contained 5 mg of lipid bilayer coated, fluorescein entrapped beads in 200 μL of Tris buffer. Samples were centrifuged and 100 μL aliquots of supernatant were mixed with either 100 μL of Tris buffer or 100 μL of 10% Triton X-100® detergent in separate centrifuge tubes. The fluorescence intensity of each mixture was immediately (time=0) recorded. Each mixture was mixed with its respective bead sample in centrifuge tube and incubated at 25° C. in the dark. After 30 min, samples were centrifuged and fluorescent intensity of the supernatants was measured. Beads were resuspended in their respective supernatants. Fluorescence intensity was again measured at 90 and 150 min.
Experimental procedures were similar to the Triton X-100® detergent based analysis. For experiments with α-toxin, three different toxin concentrations: 15, 45 and 250 μg/mL were used at 37° C. and 25° C. Beads coated with EPC were used. In the experiments with melittin, 220 μM melittin was used with beads coated with either 100% EPC, 10:90 (molar ratio) mixture of DMPG and EPC or an 80:20 mixture of DMPG and DMPC. All melittin experiments were conducted at 25° C.
Previous suspension studies on disruption of lipid bilayers have been performed with small unilamellar vesicles where disruption of the lipid bilayer membranes was detected by monitoring the unquenching of a highly concentrated, encapsulated dye. In the present work disruption was monitored via release of fluorescein dye from porous beads, by measuring the increase in fluorescence intensity of the supernatant at 520 nm. Beads were first suspended in Tris buffer containing the disruptor. After selected time periods, beads were sedimented by centrifuging and a portion of the supernatant was taken for the measurement. The measured portion was added back to the bead sample to permit continuous monitoring. The scattering effect that was present in vesicle based studies was minimized by measuring only the supernatant after centrifugation of the beads.

[4] = tested on: lipid membranes on porous silica beads (containing fluorescein dye); test: Microfluidic study: detection of membrane interaction by release of dye from bead packed microcolumn; format: biochemical
Experimental: To create a packed microcolumn of lipid coated beads containing fluorescein, 2 μL of silica bead (diameter=20 μm) containing suspension (0.05 mg/μL) was injected into a microfluidic channel by applying vacuum at the outlet port of the microchannel, followed by the injection of 10 μL of fluorescein-entrapped bead (diameter=10 μm) containing suspension (0.05 mg/μL). The bead packed microchannel was mounted onto a vertical translational stage located in the sample holder space of the fluorimeter. Just below the bead segment, the microchannel was irradiated with an Argon ion laser (λ=488 nm, 8-10 mW) excitation. The inlet of the column was connected to a buffer reservoir while the outlet was connected to a vacuum source. As the fluorescence intensity at 520 nm was monitored, several microliters of Tris buffer was passed through the microchannel before the injection of Triton X-100® detergent. […]
The packed segment was about 2 mm long. The disruption of the membranes on porous silica beads (containing fluorescein dye) by Triton X-100® detergent was detected by monitoring the release of the dye from the beads, at a point just below the bead segment as indicated in FIG. 7B. […] The microcolumn was irradiated at 488 nm and fluorescence intensity was monitored at 520 nm. […]

[5] = 0.25% (w/v) Triton X-100, 10 μM AQS

Compound: CCCCCCCCCCCCCC(=O)OC[C@H](COP(=O)([O-])OCC(O)CO)OC(=O)CCCCCCCCCCCCC.[Na+] (mixture of isomers) [DMPG, 1,2-dimyristoyl-sn-glycero-3-[phosphor-rac-(1-glycerol)] sodium salt]
- fluorescence of the PPE retained upon addition of quencher ([1]; 2 mM DMPG): ~70%

Compound: CCCCCCCCCCCCCCCC(=O)OC[C@H](COP(=O)([O-])OCC[N+](C)(C)C)OC(=O)CCCCCCCCCCCCCCC [DPPC, 1,2-dipalmitoyl-sn-glycero-3-phosphatidylcholine]
- fluorescence with AQS relative to MS-PPE and quencher without the lipid [1]: ~10 fold
- reduction (quenching) of polymer fluorescence on addition of AQS ([1]; lipid coated MS-PPE): ~40%

Compound: Triton X-100
- fluorescence after bilayer disruption, of the fluorescence of DMPG-coated MS-PPE in the absence of quencher [2, 5]: ~18%
- fluorescence after bilayer disruption, of the original fluorescence value [2, 5]: ~10%
- fluorescence intensity, of the original value ([2]; real-time kinetics, added after 10 μM AQS (traces D, E)): ~10%
- increase in fluorescence intensity of the supernatant ([3]; 10% Triton X-100, first 30 min, 25° C.): more than 70 fold
- increase in fluorescence intensity (total disruption of bilayers) ([3]; Triton X-100 added after 150 min of α-toxin exposure): 50 fold
- initial signal (1st peak) less than that observed in suspension studies ([4]; 10% Triton X-100, microcolumn versus suspension): ~80%
- increase in fluorescence intensity at detection point ([4]; 10 μL of 10% Triton X-100, about 5 min no flow incubation): 25 fold
